Reference: ChEMBL document CHEMBL5325509, “Pyrrolidinedione-thiazolidinone hybrid molecules with potent cytotoxic effect in squamous cell carcinoma SCC-15 cells” (Bioorg Med Chem, 2023)
Active and inactive are the calls of the source. No cut-off for these calls is given here.

Columns and labels:
[1] = Cytotoxicity against human HaCaT cells assessed reduction in cellular metabolic activity incubated for 72 hrs by MTT assay; assay type: toxicity, cell-based
[2] = Downregulation of PPARgamma mRNA expression in PPARgamma-silenced human SCC-15 cells at 1 uM measured after 24 hrs by RT-PCR analysis; assay type: functional
[3] = Upregulation of AHR mRNA expression in PPARgamma-silenced human SCC-15 cells at 1 uM measured after 24 hrs by RT-PCR analysis; assay type: functional
SCC-15 [4] = experiment: Cytotoxicity against human SCC-15 cells assessed as decrease in cellular metabolic activity at 100 uM incubated for 48 hrs by resazurin reduction assay relative to control; assay type: functional; set-up: scale not given: the % may be the effect or the level left
[5] = Upregulation of Caspase-3 activity in human SCC-15 cells at 100 uM measured after 24 hrs in presence of Ac-DEVD-AMC by fluorescence microplate reader analysis; assay type: functional
[6] = Upregulation of Ki67 expression in PPARgamma-silenced human SCC-15 cells at 1 uM incubated for 48 hrs Western blot analysis relative to siRNA control; assay type: functional
[7] = Upregulation of NRFL2 mRNA expression in PPARgamma knockdown human SCC-15 cells at 1 uM measured after 24 hrs by RT-PCR analysis; assay type: functional
SCC-15 [8] = experiment: Cytotoxicity against human SCC-15 cells assessed as LDH release at 50 uM incubated for 24 hrs relative to control; assay type: functional
Lung cancer cell line = experiment: Cytotoxicity against human Lung cancer cell line assessed as inhibition of cell growth measured at 72 hrs; assay type: functional, cell-based
SCC-15 [9] = experiment: Cytotoxicity against human SCC-15 cells assessed as LDH release at 50 uM incubated for 48 hrs relative to control; assay type: functional
[10] = Upregulation of AHR expression in PPARgamma-silenced human SCC-15 cells at 1 uM incubated for 48 hrs Western blot analysis relative to control; assay type: functional
[11] = Downregulation of PPARgamma mRNA expression in human SCC-15 cells at 1 uM measured after 24 hrs by RT-PCR analysis (reference value: 79.68 %); assay type: functional
SCC-15 [12] = experiment: Cytotoxicity against human SCC-15 cells assessed as decrease in cellular metabolic activity at 10 uM incubated for 48 hrs by resazurin reduction assay relative to control; assay type: functional; set-up: scale not given: the % may be the effect or the level left
[13] = Upregulation of PPARgamma expression in human SCC-15 cells at 1 uM incubated for 48 hrs Western blot analysis relative to control; assay type: functional
SCC-15 [14] = experiment: Induction of intracellular ROS generation in human SCC-15 cells at 0.001 to 100 uM by DCFH-DA staining based immunofluorescence analysis; assay type: functional, cell-based; settings: dose 0.001-100 µM, time 24-48 hrs, TDE = time-dependent effect
SCC-15 [15] = experiment: Induction of intracellular ROS generation in human SCC-15 cells at 50 to 100 uM incubated for 48 hrs by DCFH-DA staining based immunofluorescence analysis; assay type: functional; settings: dose 50-100 µM
SCC-15 [16] = experiment: Cytotoxicity against human SCC-15 cells assessed as decrease in cellular metabolic activity incubated for 48 hrs by resazurin reduction assay; assay type: functional, cell-based; settings: SCC-15, 48 h
Breast carcinoma cell = experiment: Cytotoxicity against human Breast carcinoma cell assessed as inhibition of cell growth measured at 72 hrs; assay type: functional, cell-based
[17] = Downregulation of AHR mRNA expression in human SCC-15 cells at 1 uM measured after 24 hrs by RT-PCR analysis (reference value: 17.30 %); assay type: functional
[18] = Downregulation of AHR expression in PPARgamma-silenced human SCC-15 cells at 1 uM incubated for 48 hrs Western blot analysis relative to SiRNA control; assay type: functional
SCC-15 [19] = experiment: Induction of intracellular ROS generation in human SCC-15 cells at 50 to 100 uM incubated for 24 hrs by DCFH-DA staining based immunofluorescence analysis; assay type: functional; settings: dose 50-100 µM
[20] = Downregulation of NRFL2 mRNA expression in human SCC-15 cells at 1 uM measured after 24 hrs by RT-PCR analysis (reference value: 18.36 %); assay type: functional
SCC-15 [21] = experiment: Cytotoxicity against human SCC-15 cells assessed as LDH release at 100 uM incubated for 24 hrs relative to control; assay type: functional
SCC-15 [22] = experiment: Cytotoxicity against human SCC-15 cells assessed as decrease in cellular metabolic activity at 50 uM incubated for 24 hrs by resazurin reduction assay relative to control; assay type: functional; set-up: scale not given: the % may be the effect or the level left
Glioblastoma cell line = experiment: Cytotoxicity against human Glioblastoma cell line assessed as inhibition of cell growth measured at 72 hrs; assay type: functional, cell-based
SCC-15 [23] = experiment: Cytotoxicity against human SCC-15 cells assessed as LDH release at 100 uM incubated for 48 hrs relative to control; assay type: functional
[24] = Upregulation of Ki67 expression in human SCC-15 cells at 1 uM incubated for 48 hrs Western blot analysis relative to control; assay type: functional
[25] = Upregulation of PCNA expression in PPARgamma-silenced human SCC-15 cells at 1 uM incubated for 48 hrs Western blot analysis relative to siRNA control; assay type: functional
SCC-15 [26] = experiment: Induction of intracellular ROS generation in human SCC-15 cells at 0.001 to 10 uM incubated for 24 to 48 hrs by DCFH-DA staining based immunofluorescence analysis; assay type: functional, cell-based; settings: dose 0.001-10 µM, time 24-48 hrs
Colon carcinoma cell = experiment: Cytotoxicity against human Colon carcinoma cell assessed as inhibition of cell growth measured at 72 hrs; assay type: functional, cell-based
SCC-15 [27] = experiment: Cytotoxicity against human SCC-15 cells assessed as decrease in cellular metabolic activity at 10 uM incubated for 24 hrs by resazurin reduction assay relative to control; assay type: functional; set-up: scale not given: the % may be the effect or the level left
SCC-15 [28] = experiment: Cytotoxicity against human SCC-15 cells assessed as LDH release incubated for 24 hrs; assay type: functional, cell-based; settings: SCC-15, 24 h
HaCaT = experiment: Cytotoxicity against human HaCaT cells assessed reduction in cellular metabolic activity at 0.1 to 100 uM incubated for 24 to 72 hrs by MTT assay; assay type: toxicity, cell-based; settings: dose lower 0.1 µM, time lower 24 hrs, dose upper 100 µM, time upper 72 hrs
[29] = Cytotoxicity against human Cervical carcinoma cell assessed as inhibition of cell growth measured at 72 hrs; assay type: functional, cell-based
[30] = Cytotoxicity against mouse BALB/3T3 cells assessed reduction in cellular metabolic activity incubated for 24 to 72 hrs by MTT assay; assay type: toxicity, cell-based
[31] = Cytotoxicity against human HaCaT cells assessed reduction in cellular metabolic activity incubated for 24 to 72 hrs by MTT assay; assay type: toxicity, cell-based
SCC-15 [32] = experiment: Induction of intracellular ROS generation in human SCC-15 cells incubated for 24 to 48 hrs by DCFH-DA staining based immunofluorescence analysis; assay type: functional, cell-based; settings: dose 0.001-100 µM, time 24-48 hrs
[33] = Upregulation of AHR mRNA expression in PPARgamma knockdown human SCC-15 cells at 1 uM measured after 24 hrs by RT-PCR analysis; assay type: functional
[34] = Upregulation of Caspase-3 activity in human SCC-15 cells at 100 uM measured after 48 hrs in presence of Ac-DEVD-AMC by fluorescence microplate reader analysis; assay type: functional
SCC-15 [35] = experiment: Cytotoxicity against human SCC-15 cells assessed as LDH release at 10 uM incubated for 24 hrs relative to control; assay type: functional
[36] = Downregulation of PCNA expression in PPARgamma-silenced human SCC-15 cells at 1 uM incubated for 48 hrs Western blot analysis relative to control; assay type: functional
SCC-15 [37] = experiment: Cytotoxicity against human SCC-15 cells assessed as decrease in cellular metabolic activity at 50 uM incubated for 48 hrs by resazurin reduction assay relative to control; assay type: functional; set-up: scale not given: the % may be the effect or the level left
[38] = Upregulation of PPARgamma expression in PPARgamma-silenced human SCC-15 cells at 1 uM incubated for 48 hrs Western blot analysis relative to control; assay type: functional
SCC-15 [39] = experiment: Cytotoxicity against human SCC-15 cells assessed as decrease in cellular metabolic activity incubated for 24 hrs by resazurin reduction assay; assay type: functional, cell-based; settings: SCC-15, 24 h
SCC-15 [40] = experiment: Cytotoxicity against human SCC-15 cells assessed as LDH release incubated for 48 hrs; assay type: functional, cell-based; settings: SCC-15, 48 h
BALB/3T3 = experiment: Cytotoxicity against mouse BALB/3T3 cells assessed reduction in cellular metabolic activity at 0.1 to 100 uM incubated for 24 to 72 hrs by MTT assay; assay type: toxicity, cell-based; settings: balb/3t3, 100 µM, dose lower 0.1 µM, time lower 24 hrs, dose upper 100 µM, time upper 72 hrs
SCC-15 [41] = experiment: Cytotoxicity against human SCC-15 cells assessed as decrease in cellular metabolic activity at 100 uM incubated for 24 hrs by resazurin reduction assay relative to control; assay type: functional; set-up: scale not given: the % may be the effect or the level left
Leukemic tumor cell line = experiment: Cytotoxicity against human Leukemic tumor cell line assessed as inhibition of cell growth measured at 72 hrs; assay type: functional, cell-based

O=C1CC(N2C(=O)/C(=C/C(Cl)=C/c3ccc([N+](=O)[O-])cc3)SC2=S)C(=O)N1c1ccc(O)cc1 (stereo not drawn)
IC50 at 72 h [1]: 73.6 µM
Activity [2]: 60.85%
Activity [3]: 33.59%
Activity (SCC-15 [4]): 83.18%
Activity [5]: 74.97%
Activity [6]: 41.15%
Activity [7]: 5.73%
Activity (SCC-15 [8]): 106.2%
IC50 (Lung cancer cell line): 1 µM
Activity (SCC-15 [9]): 150.7%
Activity [10]: 4.74%
Activity [11]: 21.32%
Activity (SCC-15 [12]): 69.88%
Activity [13]: 18.58%
Activity (SCC-15 [14]): Tde
Activity (SCC-15 [15]): 23.37%
IC50 (SCC-15 [16]): 6.72 µM
IC50 (Breast carcinoma cell): 1 µM
Activity [17]: 34.9%
Activity [18]: 32.59%
Activity (SCC-15 [19]): 11.01%
Activity [20]: 13.77%
Activity (SCC-15 [21]): 115.3%
Activity (SCC-15 [22]): 77%
IC50 (Glioblastoma cell line): 1 µM
Activity (SCC-15 [23]): 90.92%
Activity [24]: 28.61%
Activity [25]: 23.6%
Activity (SCC-15 [26]): inactive
IC50 (Colon carcinoma cell): 1 µM
Activity (SCC-15 [27]): 43.58%
EC50 (SCC-15 [28]): 24.9 µM
Activity (HaCaT): Non-Toxic
IC50 [29]: 1 µM
IC50 [30]: > 100 µM
IC50 [31]: > 100 µM
Activity (SCC-15 [32]): Dose-Dependent Effect
Activity [33]: 15.99%
Activity [34]: 62.85%
Activity (SCC-15 [35]): 16.8%
Activity [36]: 66.68%
Activity (SCC-15 [37]): 82.23%
Activity [38]: 19.96%
IC50 (SCC-15 [39]): 17.7 µM
EC50 (SCC-15 [40]): 32.8 µM
Activity (BALB/3T3): Non-Toxic
Activity (SCC-15 [41]): 79.14%
IC50 (Leukemic tumor cell line): 1 µM
